# In the supplement of paper PMC10307832:
# Experiments:
# Test in all cases: relative viability (nuclei count vs DMSO), 5 days (fraction); higher = more cells survive
# ABC-1 = system: ABC-1
# Method in brief: (§1)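 Relative viability was taken as the ratio of nuclei in treated wells to nuclei in vehicle wells. Lung cancer cell lines in 1536-well plates received compounds by pin tool one day after seeding, either one drug alone or a fixed anchor-drug dose plus five library-drug doses (not always all listed) in √10 steps. Nuclei were counted on 4× images after 5 days of treatment, and values are medians of duplicate plates.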
# COR-L23 = system: COR-L23
# Method in brief: as §1
# ChaGo-K-1 = system: ChaGo-K-1
# Method in brief: as §1
# EMC-BAC-2 = system: EMC-BAC-2
# Method in brief: as §1
# HARA = system: HARA
# Method in brief: as §1
# HCC-15 = system: HCC-15
# Method in brief: as §1
# HOP-62 = system: HOP-62
# Method in brief: as §1
# LC-2-ad = system: LC-2-ad
# Method in brief: as §1
# NCI-H1395 = system: NCI-H1395
# Method in brief: as §1
# NCI-H1793 = system: NCI-H1793
# Method in brief: as §1
# NCI-H1944 = system: NCI-H1944
# Method in brief: as §1
# NCI-H1993 = system: NCI-H1993
# Method in brief: as §1
# NCI-H2023 = system: NCI-H2023
# Method in brief: as §1
# NCI-H2126 = system: NCI-H2126
# Method in brief: as §1
# NCI-H2228 = system: NCI-H2228
# Method in brief: as §1
# NCI-H23 = system: NCI-H23
# Method in brief: as §1
# NCI-H2405 = system: NCI-H2405
# Method in brief: as §1
# NCI-H358 = system: NCI-H358
# Method in brief: as §1
# NCI-H838 = system: NCI-H838
# Method in brief: as §1
# SK-LU-1 = system: SK-LU-1
# Method in brief: as §1
smiles,measurement,setting,value
O=c1cc(-c2cccc3c2Sc2ccccc2S3)oc(N2CCOCC2)c1 + CCNC(=O)c1noc(-c2cc(C(C)C)c(O)cc2O)c1-c1ccc(CN2CCOCC2)cc1 [Luminespib] (partner 0.01 µM),relative viability,ABC-1; first compound 0.08 µM,0.535
same,relative viability,ABC-1; first compound 0.253 µM,0.275
same,relative viability,ABC-1; first compound 0.8 µM,0.91
same,relative viability,ABC-1; first compound 2.53 µM,0.529
same,relative viability,ABC-1; first compound 8 µM,0.532
same,relative viability,COR-L23; first compound 0.08 µM,0.863
same,relative viability,COR-L23; first compound 0.253 µM,0.854
same,relative viability,COR-L23; first compound 0.8 µM,0.837
same,relative viability,COR-L23; first compound 2.53 µM,0.78
same,relative viability,COR-L23; first compound 8 µM,0.703
same,relative viability,ChaGo-K-1; first compound 0.08 µM,0.533
same,relative viability,ChaGo-K-1; first compound 0.253 µM,0.763
same,relative viability,ChaGo-K-1; first compound 0.8 µM,0.658
same,relative viability,ChaGo-K-1; first compound 2.53 µM,0.67
same,relative viability,ChaGo-K-1; first compound 8 µM,0.548
same,relative viability,EMC-BAC-2; first compound 0.08 µM,1.16
same,relative viability,EMC-BAC-2; first compound 0.253 µM,1.31
same,relative viability,EMC-BAC-2; first compound 0.8 µM,1.13
same,relative viability,EMC-BAC-2; first compound 2.53 µM,1.18
same,relative viability,EMC-BAC-2; first compound 8 µM,1.27
same,relative viability,HARA; first compound 0.08 µM,0.708
same,relative viability,HARA; first compound 0.253 µM,0.808
same,relative viability,HARA; first compound 0.8 µM,0.822
same,relative viability,HARA; first compound 2.53 µM,0.576
same,relative viability,HARA; first compound 8 µM,0.834
same,relative viability,HCC-15; first compound 0.08 µM,0.206
same,relative viability,HCC-15; first compound 0.253 µM,0.207
same,relative viability,HCC-15; first compound 0.8 µM,0.373
same,relative viability,HCC-15; first compound 2.53 µM,0.242
same,relative viability,HCC-15; first compound 8 µM,0.276
same,relative viability,HOP-62; first compound 0.08 µM,1.06
same,relative viability,HOP-62; first compound 0.253 µM,1.04
same,relative viability,HOP-62; first compound 0.8 µM,1.03
same,relative viability,HOP-62; first compound 2.53 µM,0.983
same,relative viability,HOP-62; first compound 8 µM,1.02
same,relative viability,LC-2-ad; first compound 0.08 µM,0.979
same,relative viability,LC-2-ad; first compound 0.253 µM,1.12
same,relative viability,LC-2-ad; first compound 0.8 µM,1.13
same,relative viability,LC-2-ad; first compound 2.53 µM,0.955
same,relative viability,LC-2-ad; first compound 8 µM,0.965
same,relative viability,NCI-H1395; first compound 0.08 µM,0.632
same,relative viability,NCI-H1395; first compound 0.253 µM,0.712
same,relative viability,NCI-H1395; first compound 0.8 µM,0.658
same,relative viability,NCI-H1395; first compound 2.53 µM,0.63
same,relative viability,NCI-H1395; first compound 8 µM,0.661
same,relative viability,NCI-H1793; first compound 0.08 µM,0.168
same,relative viability,NCI-H1793; first compound 0.253 µM,0.299
same,relative viability,NCI-H1793; first compound 0.8 µM,0.231
same,relative viability,NCI-H1793; first compound 2.53 µM,0.17
same,relative viability,NCI-H1793; first compound 8 µM,0.153
same,relative viability,NCI-H1944; first compound 0.08 µM,0.678
same,relative viability,NCI-H1944; first compound 0.253 µM,0.746
same,relative viability,NCI-H1944; first compound 0.8 µM,0.72
same,relative viability,NCI-H1944; first compound 2.53 µM,0.684
same,relative viability,NCI-H1944; first compound 8 µM,0.758
same,relative viability,NCI-H1993; first compound 0.08 µM,0.628
same,relative viability,NCI-H1993; first compound 0.253 µM,0.934
same,relative viability,NCI-H1993; first compound 0.8 µM,0.778
same,relative viability,NCI-H1993; first compound 2.53 µM,0.724
same,relative viability,NCI-H1993; first compound 8 µM,0.9
same,relative viability,NCI-H2023; first compound 0.08 µM,0.58
same,relative viability,NCI-H2023; first compound 0.253 µM,0.949
same,relative viability,NCI-H2023; first compound 0.8 µM,0.601
same,relative viability,NCI-H2023; first compound 2.53 µM,0.856
same,relative viability,NCI-H2023; first compound 8 µM,0.499
same,relative viability,NCI-H2126; first compound 0.08 µM,0.791
same,relative viability,NCI-H2126; first compound 0.253 µM,1
same,relative viability,NCI-H2126; first compound 0.8 µM,0.963
same,relative viability,NCI-H2126; first compound 2.53 µM,0.822
same,relative viability,NCI-H2126; first compound 8 µM,0.836
same,relative viability,NCI-H2228; first compound 0.08 µM,0.139
same,relative viability,NCI-H2228; first compound 0.253 µM,0.106
same,relative viability,NCI-H2228; first compound 0.8 µM,0.129
same,relative viability,NCI-H2228; first compound 2.53 µM,0.146
same,relative viability,NCI-H2228; first compound 8 µM,0.143
same,relative viability,NCI-H23; first compound 0.08 µM,0.195
same,relative viability,NCI-H23; first compound 0.253 µM,0.228
same,relative viability,NCI-H23; first compound 0.8 µM,0.188
same,relative viability,NCI-H23; first compound 2.53 µM,0.219
same,relative viability,NCI-H23; first compound 8 µM,0.209
same,relative viability,NCI-H2405; first compound 0.08 µM,0.522
same,relative viability,NCI-H2405; first compound 0.253 µM,0.565
same,relative viability,NCI-H2405; first compound 0.8 µM,0.464
same,relative viability,NCI-H2405; first compound 2.53 µM,0.568
same,relative viability,NCI-H2405; first compound 8 µM,0.465
same,relative viability,NCI-H358; first compound 0.08 µM,0.154
same,relative viability,NCI-H358; first compound 0.253 µM,0.388
same,relative viability,NCI-H358; first compound 0.8 µM,0.329
same,relative viability,NCI-H358; first compound 2.53 µM,0.375
same,relative viability,NCI-H358; first compound 8 µM,0.292
same,relative viability,NCI-H838; first compound 0.08 µM,0.277
same,relative viability,NCI-H838; first compound 0.253 µM,0.264
same,relative viability,NCI-H838; first compound 0.8 µM,0.371
same,relative viability,NCI-H838; first compound 2.53 µM,0.313
same,relative viability,NCI-H838; first compound 8 µM,0.23
same,relative viability,SK-LU-1; first compound 0.08 µM,0.192
same,relative viability,SK-LU-1; first compound 0.253 µM,0.186
same,relative viability,SK-LU-1; first compound 0.8 µM,0.209
same,relative viability,SK-LU-1; first compound 2.53 µM,0.178
same,relative viability,SK-LU-1; first compound 8 µM,0.183
COc1nc(C)cnc1NS(=O)(=O)c1cccnc1-c1ccc(-c2nnco2)cc1 [Zibotentan] + CCNC(=O)c1noc(-c2cc(C(C)C)c(O)cc2O)c1-c1ccc(CN2CCOCC2)cc1 [Luminespib] (partner 0.01 µM),relative viability,ABC-1; first compound 0.08 µM,0.48
same,relative viability,ABC-1; first compound 0.8 µM,0.694
same,relative viability,ABC-1; first compound 2.53 µM,0.696
same,relative viability,COR-L23; first compound 0.08 µM,0.879
same,relative viability,COR-L23; first compound 0.253 µM,0.656
same,relative viability,COR-L23; first compound 0.8 µM,0.719
same,relative viability,COR-L23; first compound 2.53 µM,0.667
same,relative viability,ChaGo-K-1; first compound 0.08 µM,0.568
same,relative viability,ChaGo-K-1; first compound 0.253 µM,0.683
same,relative viability,ChaGo-K-1; first compound 0.8 µM,0.588
same,relative viability,ChaGo-K-1; first compound 2.53 µM,0.503
same,relative viability,EMC-BAC-2; first compound 0.08 µM,1.3
same,relative viability,EMC-BAC-2; first compound 0.8 µM,1.13
same,relative viability,EMC-BAC-2; first compound 2.53 µM,1.22
same,relative viability,HARA; first compound 0.08 µM,0.731
same,relative viability,HARA; first compound 0.253 µM,0.705
same,relative viability,HARA; first compound 0.8 µM,0.636
same,relative viability,HARA; first compound 2.53 µM,0.836
same,relative viability,HCC-15; first compound 0.08 µM,0.244
same,relative viability,HCC-15; first compound 0.253 µM,0.114
same,relative viability,HCC-15; first compound 0.8 µM,0.4
same,relative viability,HCC-15; first compound 2.53 µM,0.365
same,relative viability,HOP-62; first compound 0.08 µM,0.911
same,relative viability,HOP-62; first compound 0.253 µM,0.869
same,relative viability,HOP-62; first compound 0.8 µM,0.906
same,relative viability,HOP-62; first compound 2.53 µM,0.956
same,relative viability,LC-2-ad; first compound 0.08 µM,1.25
same,relative viability,LC-2-ad; first compound 0.8 µM,1.32
same,relative viability,LC-2-ad; first compound 2.53 µM,1.06
same,relative viability,NCI-H1395; first compound 0.08 µM,0.725
same,relative viability,NCI-H1395; first compound 0.253 µM,0.724
same,relative viability,NCI-H1395; first compound 0.8 µM,0.649
same,relative viability,NCI-H1395; first compound 2.53 µM,0.754
same,relative viability,NCI-H1793; first compound 0.08 µM,0.172
same,relative viability,NCI-H1793; first compound 0.253 µM,0.169
same,relative viability,NCI-H1793; first compound 0.8 µM,0.225
same,relative viability,NCI-H1793; first compound 2.53 µM,0.169
same,relative viability,NCI-H1944; first compound 0.08 µM,0.732
same,relative viability,NCI-H1944; first compound 0.253 µM,0.694
same,relative viability,NCI-H1944; first compound 0.8 µM,0.75
same,relative viability,NCI-H1944; first compound 2.53 µM,0.742
same,relative viability,NCI-H1993; first compound 0.08 µM,0.667
same,relative viability,NCI-H1993; first compound 0.253 µM,0.978
same,relative viability,NCI-H1993; first compound 0.8 µM,0.839
same,relative viability,NCI-H1993; first compound 2.53 µM,0.949
same,relative viability,NCI-H2023; first compound 0.08 µM,0.856
same,relative viability,NCI-H2023; first compound 0.253 µM,0.455
same,relative viability,NCI-H2023; first compound 0.8 µM,0.645
same,relative viability,NCI-H2023; first compound 2.53 µM,0.799
same,relative viability,NCI-H2126; first compound 0.08 µM,0.978
same,relative viability,NCI-H2126; first compound 0.8 µM,0.896
same,relative viability,NCI-H2126; first compound 2.53 µM,0.919
same,relative viability,NCI-H2228; first compound 0.08 µM,0.154
same,relative viability,NCI-H2228; first compound 0.253 µM,0.134
same,relative viability,NCI-H2228; first compound 0.8 µM,0.157
same,relative viability,NCI-H2228; first compound 2.53 µM,0.191
same,relative viability,NCI-H23; first compound 0.08 µM,0.199
same,relative viability,NCI-H23; first compound 0.8 µM,0.231
same,relative viability,NCI-H23; first compound 2.53 µM,0.186
same,relative viability,NCI-H2405; first compound 0.08 µM,0.703
same,relative viability,NCI-H2405; first compound 0.253 µM,0.541
same,relative viability,NCI-H2405; first compound 0.8 µM,0.774
same,relative viability,NCI-H2405; first compound 2.53 µM,0.8
same,relative viability,NCI-H358; first compound 0.08 µM,0.302
same,relative viability,NCI-H358; first compound 0.8 µM,0.435
same,relative viability,NCI-H358; first compound 2.53 µM,0.555
same,relative viability,NCI-H838; first compound 0.08 µM,0.21
same,relative viability,NCI-H838; first compound 0.253 µM,0.212
same,relative viability,NCI-H838; first compound 0.8 µM,0.314
same,relative viability,NCI-H838; first compound 2.53 µM,0.313
same,relative viability,SK-LU-1; first compound 0.08 µM,0.236
same,relative viability,SK-LU-1; first compound 0.253 µM,0.171
same,relative viability,SK-LU-1; first compound 0.8 µM,0.213
same,relative viability,SK-LU-1; first compound 2.53 µM,0.194
